Measured values reported in patent US8507509B2, “Saturated and insaturated bi- or tricyclic aryloxyacetamine derivatives and their use as fungicides” (Syngenta Crop Protection LLC, priority 2007, dated 2013).

Legend:
[1] = test system: Erysiphe graminis f.sp. tritici; assay: Erysiphe graminis f.sp. tritici (wheat powdery mildew), wheat leaf segment assay, preventive; type: in vivo; details: Blumeria graminis, foliar, 96 h; 200 ppm; wheat leaf segments; assessed four days after inoculation; read-out: control of fungal infection, Etysiphe graminis f.sp. tritici
Phytophthora infestans = assay: whole plant or invertebrate; type: in vivo; details: in Solanum lycopersicum, foliar, 96 h, read-out: control of fungal infection, Phytophthora infestans
Fusarium culmorum = Fusarium culmorum (root rot), liquid culture growth inhibition in nutrient broth; type: cell-based; details: PDB broth, 24 C, inhibition of growth determined photometrically after 48 hrs, read-out: control of fungal infection, Fusarium culmorum
Procedure: Mycelia fragments or conidia suspensions of a fungus, prepared either freshly from liquid cultures of the fungus or from cryogenic storage, are directly mixed into nutrient broth. DMSO solutions of the test compound (max. 10 mg/ml) is diluted with 0.025% Tween20 by factor 50 and 10 μl of this solution is pipetted into a microtiter plate (96-well format) and the nutrient broth containing the fungal spores/mycelia fragments is then added to give an end concentration of the tested compound. The test plates are incubated at 24° C. and 96% rH in the dark. The inhibition of fungal growth is determined photometrically after 2-6 days and antifungal activity is calculated.
Fusarium culmorum (root rot): Conidia of the fungus from cryogenic storage were directly mixed into nutrient broth (PDB potato dextrose broth). After placing a (DMSO) solution of the test compounds into a microtiter plate (96-well format) the nutrient broth containing the fungal spores was added. The test plates were incubated at 24 C and the inhibition of growth was determined photometrically after 48 hrs.

Septoria tritici = Septoria tritici (leaf blotch), liquid culture growth inhibition in nutrient broth; type: cell-based; details: Zymoseptoria tritici; 200 ppm; PDB broth, 24 C; inhibition of growth determined photometrically after 72 hrs; read-out: control of fungal infection, Septoria tritici
Septoria nodorum = Septoria nodorum (wheat glume blotch), wheat leaf segment assay, preventive; type: in vivo; details: Parastagonospora nodorum, foliar, 96 h; 200 ppm; wheat leaf segments; assessed four days after inoculation; read-out: control of fungal infection, Septoria nodorum
Plasmopara viticola = Plasmopara viticola (downy mildew of grapevine), grapevine leaf disk assay, preventive; type: in vivo; details: foliar, 168 h, 200 ppm, grapevine leaf disks, assessed seven days after inoculation, read-out: control of fungal infection, Plasmopara viticola
Pythium ultimum = Pythium ultimum (Damping off), liquid culture growth inhibition in potato dextrose broth; type: cell-based; details: Globisporangium ultimum; 20 ppm; potato dextrose broth, 24° C.; inhibition of growth determined photometrically after 48 hours; read-out: control of fungal infection, Pythium ultimum
Botrytis cinerea = Botrytis cinerea (grey mould), bean leaf disk assay, preventive; type: in vivo; details: foliar, 96 h, 200 ppm, bean leaf disks, assessed four days after inoculation, read-out: control of fungal infection, Botrytis cinerea

CON=CC(C)(C)NC(=O)C(Oc1cc(C)c2ncc(Br)cc2c1)SC (stereo not drawn) [Compound No. 26, 2-(3-Bromo-8-methyl-quinolin-6-yloxy)-N-(2-methoxyimino-1,1-dimethyl-ethyl)-2-methylsulfanyl-acetamide]
≥ 60%: pest or weed control at 200 ppm [1] | pest or weed control at 200 ppm (Phytophthora infestans) | inhibition of growth at 200 ppm (Fusarium culmorum) | inhibition of growth at 200 ppm (Septoria tritici) | pest or weed control at 200 ppm (Septoria nodorum)

C=CCON=CC(C)(C)NC(=O)C(Oc1ccc2ncc(I)cc2c1)SC (stereo not drawn) [Compound No. 52, N-(2-Allyloxyimino-1,1-dimethyl-ethyl)-2-(3-iodo-quinolin-6-yloxy)-2-methylsulfanyl-acetamide]
≥ 60%: pest or weed control at 200 ppm (Plasmopara viticola) | pest or weed control at 200 ppm (Phytophthora infestans) | inhibition of growth at 200 ppm (Fusarium culmorum) | inhibition of growth at 20 ppm (Pythium ultimum)

C#Cc1cnc2c(C)cc(OC(SC)C(=O)NC(C)(C)C=NOC)cc2c1 (stereo not drawn) [Compound No. 112, 2-(3-Ethynyl-8-methyl-quinolin-6-yloxy)-N-(2-methoxyimino-1,1-dimethyl-ethyl)-2-methylsulfanyl-acetamide]
≥ 60%: pest or weed control at 200 ppm (Plasmopara viticola) | pest or weed control at 200 ppm (Phytophthora infestans) | inhibition of growth at 200 ppm (Fusarium culmorum) | inhibition of growth at 20 ppm (Pythium ultimum) | pest or weed control at 200 ppm (Septoria nodorum)

CON=CC(C)(C)NC(=O)C(Oc1cc(C)c2ccc(Br)cc2c1)SC (stereo not drawn) [Compound No. 85, 2-(7-bromo-4-methyl-naphthalen-2-yloxy)-N-(2-methoxyimino-1,1-dimethyl-ethyl)-2-methylsulfanyl-acetamide]
≥ 60%: pest or weed control at 200 ppm [1] | pest or weed control at 200 ppm (Botrytis cinerea) | inhibition of growth at 200 ppm (Septoria tritici)

C=CCON=C(Cc1ccccn1)C(C)(C)NC(=O)C(Oc1ccc2ncc(Br)cc2c1)SC (stereo not drawn) [Compound No. 129, N-{2-[(E or Z)-Allyloxyimino]-1,1-dimethyl-3-pyridin-2-yl-propyl}-2-(3-bromo-quinolin-6-yloxy)-2-methylsulfanyl-acetamide]
≥ 60%: pest or weed control at 200 ppm (Botrytis cinerea) | inhibition of growth at 200 ppm (Septoria tritici)

CSC(Oc1ccc2ncc(I)cc2c1)C(=O)NC(C)(C)C=NO (stereo not drawn) [Compound No. 153, N-(2-Hydroxyimino-1,1-dimethyl-ethyl)-2-(3-iodo-quinolin-6-yloxy)-2-methylsulfanyl-acetamide]
≥ 60%: pest or weed control at 200 ppm [1] | pest or weed control at 200 ppm (Plasmopara viticola) | pest or weed control at 200 ppm (Phytophthora infestans) | inhibition of growth at 200 ppm (Fusarium culmorum) | inhibition of growth at 200 ppm (Septoria tritici) | inhibition of growth at 20 ppm (Pythium ultimum)

CON=CCC(C)NC(=O)C(Oc1cc(C)c2ncc(I)cc2c1)SC (stereo not drawn) [Compound No. 105, 2-(3-Iodo-8-methyl-quinolin-6-yloxy)-N-(3-methoxyimino-1-methyl-propyl)-2-methylsulfanyl-acetamide]
≥ 60%: pest or weed control at 200 ppm [1] | inhibition of growth at 200 ppm (Fusarium culmorum) | inhibition of growth at 200 ppm (Septoria tritici) | inhibition of growth at 20 ppm (Pythium ultimum)

C=CCON=CCC(C)(C)NC(=O)C(Oc1cc(C)c2ncc(I)cc2c1)SC (stereo not drawn) [Compound No. 40, N-(3-Allyloxyimino-1,1-dimethyl-propyl)-2-(3-iodo-8-methyl-quinolin-6-yloxy)-2-methylsulfanyl-acetamide]
≥ 60%: pest or weed control at 200 ppm (Botrytis cinerea) | pest or weed control at 200 ppm (Plasmopara viticola) | inhibition of growth at 200 ppm (Septoria tritici)

CON=CC(C)(C)NC(=O)C(Oc1cc(Cl)c2sccc2c1)SC (stereo not drawn) [Compound No. 83, 2-(7-Chloro-benzo[b]thiophen-5-yloxy)-N-(2-methoxyimino-1,1-dimethyl-ethyl)-2-methylsulfanyl-acetamide]
≥ 60%: pest or weed control at 200 ppm (Botrytis cinerea) | pest or weed control at 200 ppm (Plasmopara viticola) | inhibition of growth at 200 ppm (Septoria tritici)

CON=CCC(C)NC(=O)C(Oc1ccc2ncc(I)cc2c1)SC (stereo not drawn) [Compound No. 48, 2-(3-Iodo-quinolin-6-yloxy)-N-(3-methoxyimino-1-methyl-propyl)-2-methylsulfanyl-acetamide]
≥ 60%: pest or weed control at 200 ppm [1] | inhibition of growth at 200 ppm (Fusarium culmorum) | inhibition of growth at 200 ppm (Septoria tritici) | pest or weed control at 200 ppm (Septoria nodorum)

CON=C(Cc1ccccc1)C(C)(C)NC(=O)C(Oc1ccc2ncc(Br)cc2c1)SC (stereo not drawn) [Compound No. 121, 2-(3-Bromo-quinolin-6-yloxy)-N-{2-[(E or Z)-methoxyimino]-1,1-dimethyl-3-phenyl-propyl}-2-methylsulfanyl-acetamide]
≥ 60%: pest or weed control at 200 ppm (Botrytis cinerea) | pest or weed control at 200 ppm (Plasmopara viticola) | inhibition of growth at 200 ppm (Septoria tritici)

CCON=CC(C)(C)NC(=O)C(Oc1cc(Br)c2ncc(Br)cc2c1)SC (stereo not drawn) [Compound No. 33, 2-(3,8-Dibromo-quinolin-6-yloxy)-N-(2-ethoxyimino-1,1-dimethyl-ethyl)-2-methylsulfanyl-acetamide]
≥ 60%: pest or weed control at 200 ppm (Botrytis cinerea) | pest or weed control at 200 ppm (Plasmopara viticola) | inhibition of growth at 200 ppm (Septoria tritici)

CON=CC(C)(C)NC(=O)C(Oc1cc(Cl)c2ncc(I)cc2c1)SC (stereo not drawn) [Compound No. 106, 2-(8-Chloro-3-iodo-quinolin-6-yloxy)-N-(2-methoxyimino-1,1-dimethyl-ethyl)-2-methylsulfanyl-acetamide]
≥ 60%: pest or weed control at 200 ppm (Botrytis cinerea) | pest or weed control at 200 ppm (Plasmopara viticola) | inhibition of growth at 200 ppm (Septoria tritici)

C#Cc1cnc2c(C)cc(OC(SC)C(=O)NC(C)(C)C=NOCC)cc2c1 (stereo not drawn) [Compound No. 113, N-(2-Ethoxyimino-1,1-dimethyl-ethyl)-2-(3-Ethynyl-8-methyl-quinolin-6-yloxy)-2-methylsulfanyl-acetamide]
≥ 60%: pest or weed control at 200 ppm (Plasmopara viticola) | pest or weed control at 200 ppm (Phytophthora infestans) | inhibition of growth at 200 ppm (Fusarium culmorum) | inhibition of growth at 20 ppm (Pythium ultimum) | pest or weed control at 200 ppm (Septoria nodorum)

CON=CC(C)(C)NC(=O)C(Oc1cc(C)c2sccc2c1)SC (stereo not drawn) [Compound No. 84, N-(2-methoxyimino-1,1-dimethyl-ethyl)-2-(7-methyl-benzo[b]thiophen-5-yloxy)-2-methylsulfanyl-acetamide]
≥ 60%: pest or weed control at 200 ppm (Botrytis cinerea) | pest or weed control at 200 ppm (Plasmopara viticola) | inhibition of growth at 200 ppm (Septoria tritici)

CCON=C(Cc1ccccc1)C(C)(C)NC(=O)C(Oc1ccc2ncc(Br)cc2c1)SC (stereo not drawn) [Compound No. 122, 2-(3-Bromo-quinolin-6-yloxy)-N-{2-[(E or Z)-ethoxyimino]-1,1-dimethyl-3-phenyl-propyl}-2-methylsulfanyl-acetamide]
≥ 60%: pest or weed control at 200 ppm (Botrytis cinerea) | pest or weed control at 200 ppm (Plasmopara viticola) | inhibition of growth at 200 ppm (Septoria tritici)

C#Cc1cnc2c(C)cc(OC(SC)C(=O)NC(C)(C)C=NOCC=C)cc2c1 (stereo not drawn) [Compound No. 114, N-(2-Allyloxyimino-1,1-dimethyl-ethyl)-2-(3-Ethynyl-8-methyl-quinolin-6-yloxy)-2-methylsulfanyl-acetamide]
≥ 60%: pest or weed control at 200 ppm [1] | pest or weed control at 200 ppm (Plasmopara viticola) | pest or weed control at 200 ppm (Phytophthora infestans) | inhibition of growth at 200 ppm (Fusarium culmorum) | pest or weed control at 200 ppm (Septoria nodorum)

CCCCON=CCC(C)(C)NC(=O)C(Oc1cc(C)c2ncc(I)cc2c1)SC (stereo not drawn) [Compound No. 39, N-(3-Butoxyimino-1,1-dimethyl-propyl)-2-(3-iodo-8-methyl-quinolin-6-yloxy)-2-methylsulfanylacetamide]
≥ 60%: pest or weed control at 200 ppm (Botrytis cinerea) | inhibition of growth at 200 ppm (Septoria tritici)

CSC(Oc1cc(C)c2ncc(Br)cc2c1)C(=O)NC(C)(C)C=NOc1ccccc1 (stereo not drawn) [Compound No. 23, 2-(3-Bromo-8-methyl-quinolin-6-yloxy)-N-(1,1-dimethyl-2-phenoxyimino-ethyl)-2-methylsulfanyl-acetamide]
≥ 60%: pest or weed control at 200 ppm [1] | pest or weed control at 200 ppm (Plasmopara viticola) | pest or weed control at 200 ppm (Phytophthora infestans) | inhibition of growth at 200 ppm (Fusarium culmorum) | inhibition of growth at 20 ppm (Pythium ultimum) | pest or weed control at 200 ppm (Septoria nodorum)

C#Cc1cnc2c(Cl)cc(OC(SC)C(=O)NC(C)(C)C=NOC)cc2c1 (stereo not drawn) [Compound No. 115, 2-(8-Chloro-3-ethynyl-quinolin-6-yloxy)-N-(2-methoxyimino-1,1-dimethyl-ethyl)-2-methylsulfanyl-acetamide]
≥ 60%: pest or weed control at 200 ppm [1] | pest or weed control at 200 ppm (Plasmopara viticola) | pest or weed control at 200 ppm (Phytophthora infestans) | inhibition of growth at 200 ppm (Fusarium culmorum) | inhibition of growth at 20 ppm (Pythium ultimum) | pest or weed control at 200 ppm (Septoria nodorum)

C#CCON=CC(C)(C)NC(=O)C(Oc1cc(C)c2ncc(Br)cc2c1)SC (stereo not drawn) [Compound No. 29, 2-(3-Bromo-8-methyl-quinolin-6-yloxy)-N-(1,1-dimethyl-2-prop-2-ynyloxyimino-ethyl)-2-methylsulfanyl-acetamide]
≥ 60%: pest or weed control at 200 ppm [1] | pest or weed control at 200 ppm (Plasmopara viticola) | pest or weed control at 200 ppm (Phytophthora infestans) | inhibition of growth at 200 ppm (Fusarium culmorum) | inhibition of growth at 20 ppm (Pythium ultimum) | pest or weed control at 200 ppm (Septoria nodorum)
